According to US20260091147A1, “METHOD FOR DETECTING INNATE IMMUNE ACTION IN VIVO USING GPR84-PET” (The Board of Trustees of the Leland Standford Junior …, priority 2023, published 2026):

Assays:
[1] = healthy rhesus macaque, n=1
Protocol: The animal was anesthetized in the home cage with Telazol and transported to the PET facility, where the subject was intubated for mechanical ventilation; anesthesia was continued with isoflurane and maintained throughout the duration of the PET scan. A venous catheter was inserted into one hind limb and the monkey was placed on the PET gantry with its head secured to prevent motion artifacts. […] Emission data were collected beginning with the injection and continued for 60 minutes. Vitals (HR, SPO2, EtCO2 and respiratory rate) were collected for the entire duration of the scan. Data were corrected for attenuation and scatter and reconstructed using the three-dimensional-maximum a priori method (3D MAP algorithm). A ROI was defined for the whole brain on multiple planes by using a summed image. The volumetric ROI was then applied to a full dynamic data set to generate a TAC.

GPR84 [2] = target: T1, GPR84 (Mus musculus, UniProt Q8CIM5); assay: Ex vivo biodistribution (gamma counting) of GPR84 tracer in LPS- vs saline-treated mice; settings: LPS 10 mg/kg
T1 construct: tissue Jackson Laboratories; host or cells: female C57BL/6J mice (LPS, saline, EAE or naive): brain, spinal cord and peripheral organs
Protocol: FIGS. 11A-11B show ex vivo biodistribution and autoradiography. […] At 20 min postinjection, animals were perfused with saline and tissues were collected, weighed, and gamma-counted. […] Statistical analysis was performed using “Unpaired t test with Welch correction”, *=P<0.05. […] Cb=cerebellum, Ctx=cortex, Str=striatum, H=hippocampus, Mb=midbrain, Ob=olfactory bulb, and BS=brain stem.
To determine KD of GLPG38, a competitive binding assay was performed using a membrane preparation from cells expressing GPR84-Gi in addition to [^3H]G9543, a known GPR84 antagonist. [^11C]GLPG38 was then radiosynthesized via [^11C]methylation of desmethyl precursor using [^11C]methyl iodide. […] Dynamic 60 min PET/CT imaging was performed 24 hr following LPS-administration using [^11C]GLPG38. Subsequently, mice were perfused with PBS to remove blood, and radioactive signal was assessed in CNS and peripheral tissues via gamma counting. Ex vivo autoradiography of sagittal mouse brain sections was conducted to obtain high resolution images of [^11C]GLPG38 binding. To investigate alterations in GPR84 mRNA expression, quantitative polymerase-chain reaction was performed using mouse brain tissue and human monocyte-derived macrophage cells stimulated with LPS 24 hr prior to RNA extraction.

GPR84 [3] = target: T1, GPR84; assay: Ex vivo autoradiography of brain sections from LPS-treated mice; format: in vivo
Protocol: To determine KD of GLPG38, a competitive binding assay was performed using a membrane preparation from cells expressing GPR84-Gi in addition to [^3H]G9543, a known GPR84 antagonist. [^11C]GLPG38 was then radiosynthesized via [^11C]methylation of desmethyl precursor using [^11C]methyl iodide. Binding specificity of [^11C]GLPG38 was assessed using human GPR84-stably-expressing human embryonic kidney cells (HEK-293) versus control HEK-293 cells. For animal studies, sepsis was induced in female C57BL/6J mice via intraperitoneal injection of lipopolysaccharide (LPS, 10 mg/kg); vehicle-treated mice were injected with saline alone. Dynamic 60 min PET/CT imaging was performed 24 hr following LPS-administration using [^11C]GLPG38. Subsequently, mice were perfused with PBS to remove blood, and radioactive signal was assessed in CNS and peripheral tissues via gamma counting. Ex vivo autoradiography of sagittal mouse brain sections was conducted to obtain high resolution images of [^11C]GLPG38 binding. To investigate alterations in GPR84 mRNA expression, quantitative polymerase-chain reaction was performed using mouse brain tissue and human monocyte-derived macrophage cells stimulated with LPS 24 hr prior to RNA extraction.
Ex vivo Audoradiography Confirms ^11C-MGX-10S Specificity.

GPR84 [4] = target: T1, GPR84; assay: Dynamic PET/CT in EAE vs naive mice, spinal cord time activity curves; format: in vivo
Protocol: 10-week old female C57BL/6 mice were induced with EAE using kits from Hooke Laboratories Inc. (cat #EK2110; Lawrence, MA). After anesthetizing mice with isoflurane gas (2.0-3.0% for induction and 1.5-2.5% for maintenance), they were inoculated with myelin oligodendrocyte glycoprotein (MOG35-55) in complete Freund's adjuvant (CFA) (0.2 mL per mouse, S.C.), followed by two pertussis toxin (PTX) injections (110 ng per injection, I.P., 1 and 24 h post-MOG injection). All mice were weighed and scored daily in the morning from day 8 onwards according to standard EAE scoring systems: 0, no paralysis; 1, loss of tail tone; 2, hind limb weakness or paresis; 3, hind limb paralysis; 4, complete hind leg and partial front leg paralysis. EAE mice were given supplemental food and fluids as necessary.
On days 15-16 after EAE induction, mice were catheterized and placed on the 4-mouse scanning bed of the Sofie GNEXT PET/CT scanner. Mice were injected with a radiotracer bolus of 130-170 μCi of ^18F-MGX-110S for a 60-min dynamic PET scan followed by CT. Scans were reconstructed from list mode into 19 frames (4×15 s, 4×60 s, 11×300 s) using OSEM3D reconstruction with 3 iterations and 24 subsets. Brain analysis was performed using a semi-automated brain atlas on VivoQuant software (2020 version) and spinal cords were manually drawn as previously described (JoVE).
(§1) Radiosynthesis of ^18F-MGX-110S was achieved by copper-mediated fluorination of a Bpin precursor in a mixture of dimethylacetamide at 130° C. for 20 min. C57BL/6 mice were induced with EAE using myelin oligodendrite glycoprotein (MOG35-55) emulsified in complete Freund's adjuvant and weighed/scored daily for disease severity. Expression of Gpr84 and Tspo was assessed in EAE (n=10-16 mice of low and high disease severities) versus naïve mice (n=5) using quantitative polymerase chain reaction (qPCR) of CNS tissues. In vivo kinetics, spatial distribution, and BBB permeability of ^18F-MGX-110S was assessed via 60-min dynamic PET/CT imaging of naïve C57BL/6 (n=3) and high scoring EAE mice (n=3). Ex vivo gamma counting of tissues of interest was conducted using naïve (n=8) and EAE (n=8) mice 60-min post-tracer injection. Lastly, EAE (n=3) and naïve (n=4) mice were injected with ^18F-GE180 and dissected 60 min later for gamma counting as a comparison.

GPR84 [5] = target: T1, GPR84; assay: Ex vivo gamma counting of CNS tissues in EAE vs naive mice
Protocol: After the PET/CT scan the mice were perfused under 3% isoflurane and organs of interest were dissected out, weighed, and placed on a Hidex gamma counter to quantify the percent of injected dose per gram of tissue. After gamma counting, CNS tissues were frozen and sectioned on a cryotome at 40 μm and placed on a phosphor storage screen overnight. The images were read using a Typhoon imager 18 h after the screen was exposed to the tissues. Additional mice were also injected off of the PET/CT scanner and perfused at 60-min post-injection to increase the N for the ex vivo gamma counting and autoradiography data.
as §1, with “Ex vivo gamma counting of tissues of interest was conducted using naïve (n=8) and EAE (n=8) mice 60-min post-tracer injection. Lastly, EAE (n=3) and naïve (n=4) mice were injected with ^18F-GE180 and dissected 60 min later for gamma counting as a comparison.” left out

T1 sequence (Q8CIM5 whole entry): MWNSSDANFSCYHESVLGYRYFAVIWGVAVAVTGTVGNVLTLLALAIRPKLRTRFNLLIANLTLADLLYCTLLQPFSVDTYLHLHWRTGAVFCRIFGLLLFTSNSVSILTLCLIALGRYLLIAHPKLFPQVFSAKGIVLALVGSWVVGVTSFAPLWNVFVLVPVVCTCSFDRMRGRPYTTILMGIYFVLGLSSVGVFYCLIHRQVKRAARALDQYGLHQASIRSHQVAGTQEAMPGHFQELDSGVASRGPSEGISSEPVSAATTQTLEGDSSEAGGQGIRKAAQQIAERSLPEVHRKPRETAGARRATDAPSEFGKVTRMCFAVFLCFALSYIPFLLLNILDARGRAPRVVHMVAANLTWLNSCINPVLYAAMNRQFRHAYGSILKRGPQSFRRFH

## Cc1cc2c(cc1O[11CH3])CCn1c-2c(C)c(OC[C@@H]2COCCO2)cc1=O [[^11C]GLPG38]
[1]
  peak whole-brain uptake at 4 minutes post injection: 3.3 SUV
  whole-brain level after washout over 60 min: 1.47 SUV
GPR84 [2]; p=0.0023
  gamma counting signal in brain, LPS-injected vs vehicle mice: increased signal in the brain
GPR84 [2]; p=0.007
  gamma counting tracer binding in adipose tissue, LPS vs vehicle mice: significant increase in tracer binding
GPR84 [3]; GLPG1205 5 mg/kg ([11C]GLPG38) or 1 mg/kg (11C-MGX-10S)
  tracer binding in LPS brain sections after pre-blocking with GLPG1205: substantial reduction
GPR84 [3]; mouse, in vivo
  tracer binding in brain sections, LPS-treated vs vehicle mice: marked increase

## O=c1nc(OC[C@@H]2COCCO2)cc2n1CCc1cc([18F])ccc1-2 [^18F-MGX-110S]
GPR84 [4]; high scoring EAE, n=3
  cervical/thoracic spinal cord signal at 60 min, EAE mice: 4.54±1.16 % ID/g
GPR84 [4]; high scoring EAE, n=3, p=0.0206
  lumbar spinal cord signal at 60 min, EAE mice: 7.08±1.05 % ID/g
GPR84 [4]; n=3
  cervical/thoracic spinal cord signal at 60 min, naive mice: 3.21±0.42 % ID/g
  lumbar spinal cord signal at 60 min, naive mice: 4.13±0.79 % ID/g
GPR84 [5]; 60 min post injection
  signal-to-background ratio (EAE-to-naive) in lumbar spinal cord relative to 18F-GE180: 2.5 fold
GPR84 [5]; both p<0.01
  tracer binding in cervical/thoracic and lumbar spinal cord, EAE vs naive: significantly elevated tracer binding
